According to publication PMC5218480 (PLoS ONE, 2017):

Test system: MV-4-11 cells
Assay: Gene expression microarray analysis (Affymetrix PrimeView) and GSEA
Assay type: cell-based, human
Parameters: RFU PODN (11730768_x_at) / Fold change /veh PODN (11730768_x_at) / RFU LINC00158 (11744669_a_at) / Fold change /veh LINC00158 (11744669_a_at) / RFU DUSP10 (11751237_a_at) / Fold change /veh DUSP10 (11751237_a_at) / RFU ID3 (11757404_x_at) / Fold change /veh ID3 (11757404_x_at) / RFU PLEKHG5 (11737974_s_at) / Fold change /veh PLEKHG5 (11737974_s_at) / RFU LRRC4B (11730491_at) / Fold change /veh LRRC4B (11730491_at) / RFU GIMAP4 (11747438_a_at) / Fold change /veh GIMAP4 (11747438_a_at) / RFU KRT8 (11758183_x_at) / Fold change /veh KRT8 (11758183_x_at) / RFU CNN1 (11734310_a_at) / Fold change /veh CNN1 (11734310_a_at) / RFU VPS37D (11726825_at) / Fold change /veh VPS37D (11726825_at) / RFU C10orf10 (11716522_x_at) / Fold change /veh C10orf10 (11716522_x_at) / RFU KIR2DL2 /// KIR2DL4 /// KIR2DL5A /// KIR2DL5B /// KIR2DS1 /// KIR2DS2 /// KIR2DS3 /// KIR2DS4 /// KIR3DL3 /// KIR3DL3 /// KIR3DS1 (11738374_at) / Fold change /veh KIR2DL2 /// KIR2DL4 /// KIR2DL5A /// KIR2DL5B /// KIR2DS1 /// KIR2DS2 /// KIR2DS3 /// KIR2DS4 /// KIR3DL3 /// KIR3DL3 /// KIR3DS1 (11738374_at) / RFU C1QL1 (11718748_at) / Fold change /veh C1QL1 (11718748_at) / RFU TMPRSS4 (11747572_a_at) / Fold change /veh TMPRSS4 (11747572_a_at) / RFU HAMP (11756126_x_at) / Fold change /veh HAMP (11756126_x_at) / RFU RNFT2 (11725882_a_at) / Fold change /veh RNFT2 (11725882_a_at) / RFU NR4A2 (11747474_a_at) / Fold change /veh NR4A2 (11747474_a_at) / RFU ABCC12 (11746883_a_at) / Fold change /veh ABCC12 (11746883_a_at) / RFU TMEM136 (11760407_x_at) / Fold change /veh TMEM136 (11760407_x_at) / RFU CLDN22 /// WWC2 (11732394_at) / Fold change /veh CLDN22 /// WWC2 (11732394_at) / RFU HLA-DPB1 (11760878_x_at) / Fold change /veh HLA-DPB1 (11760878_x_at) / RFU SPINT1 (11716480_a_at) / Fold change /veh SPINT1 (11716480_a_at) / RFU GAP43 (11754022_s_at) / Fold change /veh GAP43 (11754022_s_at) / RFU A4GNT (11735810_at) / Fold change /veh A4GNT (11735810_at) / RFU PRB3 (11715151_x_at) / Fold change /veh PRB3 (11715151_x_at) / RFU TUBB4B (11761932_at) / Fold change /veh TUBB4B (11761932_at) / RFU CAPN14 (11732068_a_at) / Fold change /veh CAPN14 (11732068_a_at) / RFU TMCC2 (11721928_a_at) / Fold change /veh TMCC2 (11721928_a_at) / RFU IRGQ (11745062_a_at) / Fold change /veh IRGQ (11745062_a_at) / RFU FAM174B (11720279_a_at) / Fold change /veh FAM174B (11720279_a_at) / RFU TMPRSS4 (11748680_a_at) / Fold change /veh TMPRSS4 (11748680_a_at) / RFU FAM212B (11763350_a_at) / Fold change /veh FAM212B (11763350_a_at) / RFU PLEKHG5 (11743358_a_at) / Fold change /veh PLEKHG5 (11743358_a_at) / RFU ZSCAN30 (11745921_a_at) / Fold change /veh ZSCAN30 (11745921_a_at) / RFU CMKLR1 (11741424_a_at) / Fold change /veh CMKLR1 (11741424_a_at) / RFU LOC101060620 /// MAPK8IP1 (11723275_at) / Fold change /veh LOC101060620 /// MAPK8IP1 (11723275_at) / RFU SPTSSB (11747773_x_at) / Fold change /veh SPTSSB (11747773_x_at) / RFU PRSS12 (11739890_at) / Fold change /veh PRSS12 (11739890_at) / RFU BIN1 (11741810_x_at) / Fold change /veh BIN1 (11741810_x_at) / RFU WNT11 (11732464_a_at) / Fold change /veh WNT11 (11732464_a_at) / RFU C10orf10 (11716521_a_at) / Fold change /veh C10orf10 (11716521_a_at) / RFU C5orf56 (11738089_at) / Fold change /veh C5orf56 (11738089_at) / RFU CYB561 (11721691_x_at) / Fold change /veh CYB561 (11721691_x_at) / RFU ANKRD19P (11752326_a_at) / Fold change /veh ANKRD19P (11752326_a_at) / RFU OR2T12 /// OR2T33 /// OR2T8 (11738714_s_at) / Fold change /veh OR2T12 /// OR2T33 /// OR2T8 (11738714_s_at) / RFU VCAN (11748164_a_at) / Fold change /veh VCAN (11748164_a_at) / RFU JSRP1 (11732532_at) / Fold change /veh JSRP1 (11732532_at) / RFU KRTAP10-11 (11738290_x_at) / Fold change /veh KRTAP10-11 (11738290_x_at) / RFU MYO3A (11730013_a_at) / Fold change /veh MYO3A (11730013_a_at) / RFU EBF3 (11725865_a_at) / Fold change /veh EBF3 (11725865_a_at) / RFU CAMK2N1 (11719241_x_at) / Fold change /veh CAMK2N1 (11719241_x_at) / RFU C5orf56 (11738088_a_at) / Fold change /veh C5orf56 (11738088_a_at) / RFU OLFML3 (11715873_a_at) / Fold change /veh OLFML3 (11715873_a_at) / RFU LOC100653217 /// NTM (11731650_a_at) / Fold change /veh LOC100653217 /// NTM (11731650_a_at) / RFU MAPK11 (11762145_a_at) / Fold change /veh MAPK11 (11762145_a_at) / RFU FIZ1 (11724087_x_at) / Fold change /veh FIZ1 (11724087_x_at) / RFU OASL (11726364_x_at) / Fold change /veh OASL (11726364_x_at) / RFU SOX15 (11748057_x_at) / Fold change /veh SOX15 (11748057_x_at) / RFU CD79A (11719716_a_at) / Fold change /veh CD79A (11719716_a_at) / RFU HIST1H1D (11736915_at) / Fold change /veh HIST1H1D (11736915_at) / RFU CASKIN2 (11723855_a_at) / Fold change /veh CASKIN2 (11723855_a_at) / RFU LOC730098 (11760151_x_at) / Fold change /veh LOC730098 (11760151_x_at) / RFU OR4N2 (11742367_at) / Fold change /veh OR4N2 (11742367_at) / RFU PRRT2 (11749266_a_at) / Fold change /veh PRRT2 (11749266_a_at) / RFU SNX32 (11753110_a_at) / Fold change /veh SNX32 (11753110_a_at) / RFU CDHR5 (11726645_a_at) / Fold change /veh CDHR5 (11726645_a_at) / RFU RCAN1 (11760418_a_at) / Fold change /veh RCAN1 (11760418_a_at) / RFU FAM167A (11723789_a_at) / Fold change /veh FAM167A (11723789_a_at) / RFU FAM26E (11764081_at) / Fold change /veh FAM26E (11764081_at) / RFU ISYNA1 (11749810_s_at) / Fold change /veh ISYNA1 (11749810_s_at) / RFU ACY1 (11761880_at) / Fold change /veh ACY1 (11761880_at) / RFU 11764098_at / Fold change /veh 11764098_at / RFU SAMD14 (11745864_x_at) / Fold change /veh SAMD14 (11745864_x_at) / RFU NPB (11741838_a_at) / Fold change /veh NPB (11741838_a_at) / RFU TMPRSS6 (11731388_a_at) / Fold change /veh TMPRSS6 (11731388_a_at) / RFU KRTAP10-2 (11738614_at) / Fold change /veh KRTAP10-2 (11738614_at) / RFU ARHGAP8 /// PRR5-ARHGAP8 (11727945_x_at) / Fold change /veh ARHGAP8 /// PRR5-ARHGAP8 (11727945_x_at) / RFU KRTAP5-7 /// NADSYN1 (11734609_at) / Fold change /veh KRTAP5-7 /// NADSYN1 (11734609_at) / RFU RASL12 (11751679_a_at) / Fold change /veh RASL12 (11751679_a_at) / RFU CDKN2B (11736163_a_at) / Fold change /veh CDKN2B (11736163_a_at) / RFU PRF1 (11729649_at) / Fold change /veh PRF1 (11729649_at) / RFU, ZNF638 /// ZNF638-IT1 / Fold change vs veh, ZNF638 /// ZNF638-IT1 / RFU, PANK3 / Fold change vs veh, PANK3 / RFU, SH3YL1 / Fold change vs veh, SH3YL1 / RFU, ZEB2 / Fold change vs veh, ZEB2 / RFU, NRIP1 / Fold change vs veh, NRIP1 / RFU, PTTG1IP / Fold change vs veh, PTTG1IP / RFU, CAPN2 / Fold change vs veh, CAPN2 / RFU, MED14 / Fold change vs veh, MED14 / RFU, SNORA58 / Fold change vs veh, SNORA58 / RFU, C1orf63 / Fold change vs veh, C1orf63 / RFU, LRRFIP1 / Fold change vs veh, LRRFIP1 / RFU, NDUFAF7 / Fold change vs veh, NDUFAF7 / RFU, SLC12A2 / Fold change vs veh, SLC12A2 / RFU, IBTK / Fold change vs veh, IBTK / RFU, ESF1 / Fold change vs veh, ESF1 / Fold change vs veh, TMEM50B / RFU, TAOK1 / Fold change vs veh, TAOK1 / RFU, ACBD3 / Fold change vs veh, ACBD3 / RFU, TMA16 / Fold change vs veh, TMA16 / RFU, RWDD3 / Fold change vs veh, RWDD3 / RFU, BCAT1 / Fold change vs veh, BCAT1 / RFU, EDEM3 / Fold change vs veh, EDEM3 / RFU, TMEM33 / Fold change vs veh, TMEM33 / RFU, WDR75 / Fold change vs veh, WDR75 / RFU, AHCTF1 / Fold change vs veh, AHCTF1 / RFU, TFRC / Fold change vs veh, TFRC / RFU, ZDHHC17 / Fold change vs veh, ZDHHC17 / RFU, NOM1 / Fold change vs veh, NOM1 / RFU, ARL8B / Fold change vs veh, ARL8B / RFU, ZBTB11 / Fold change vs veh, ZBTB11 / RFU, TAMM41 / Fold change vs veh, TAMM41 / RFU, KIAA1704 /// LOC100996395 / Fold change vs veh, KIAA1704 /// LOC100996395 / RFU, ING1 / Fold change vs veh, ING1 / RFU, TRMT61B / Fold change vs veh, TRMT61B / RFU, FUBP3 / Fold change vs veh, FUBP3 / RFU, TP53 / Fold change vs veh, TP53 / RFU, TNKS2 / Fold change vs veh, TNKS2 / RFU, ZFP14 / Fold change vs veh, ZFP14 / RFU, ACTR2 / Fold change vs veh, ACTR2 / RFU, PPP3R1 / Fold change vs veh, PPP3R1 / RFU, PIK3R1 / Fold change vs veh, PIK3R1 / RFU, HNRNPA1 / Fold change vs veh, HNRNPA1 / RFU, RNF170 / Fold change vs veh, RNF170 / RFU, ZNF28 / Fold change vs veh, ZNF28 / RFU, RNGTT / Fold change vs veh, RNGTT / RFU, OGT / Fold change vs veh, OGT / RFU, BRD1 / Fold change vs veh, BRD1 / RFU, MARS / Fold change vs veh, MARS / RFU, ZNF655 / Fold change vs veh, ZNF655 / RFU, FAHD1 / Fold change vs veh, FAHD1 / RFU, BDP1 / Fold change vs veh, BDP1 / RFU, LRRCC1 / Fold change vs veh, LRRCC1 / RFU, ARID1A / Fold change vs veh, ARID1A / RFU, ZNF146 / Fold change vs veh, ZNF146 / RFU, ZNF330 / Fold change vs veh, ZNF330 / RFU, GPN3 / Fold change vs veh, GPN3 / RFU, C9orf123 / Fold change vs veh, C9orf123 / RFU, N4BP2L2 / Fold change vs veh, N4BP2L2 / RFU, ARFIP1 / Fold change vs veh, ARFIP1 / RFU, FAM179B / Fold change vs veh, FAM179B / RFU, BCL10 / Fold change vs veh, BCL10 / RFU, UHRF1BP1L / Fold change vs veh, UHRF1BP1L / RFU, BET1 / Fold change vs veh, BET1 / RFU, CNOT2 / Fold change vs veh, CNOT2 / RFU, ZNF268 / Fold change vs veh, ZNF268 / Fold change vs veh, ZNF507 / RFU, DGCR2 / Fold change vs veh, DGCR2 / RFU, WDSUB1 / Fold change vs veh, WDSUB1 / Fold change vs veh, HSP90B1 /// MIR3652 / RFU, ADSS / Fold change vs veh, ADSS / RFU, GK / Fold change vs veh, GK / RFU, ZNF148 / Fold change vs veh, ZNF148 / RFU, TAF9 / Fold change vs veh, TAF9 / RFU, SLC1A5 / Fold change vs veh, SLC1A5 / RFU, SLMO2 / Fold change vs veh, SLMO2 / RFU, ABCC4 / Fold change vs veh, ABCC4 / RFU, LOC101060439 /// RAP1B / Fold change vs veh, LOC101060439 /// RAP1B / RFU, RFX7 / Fold change vs veh, RFX7 / RFU, GTPBP10 / Fold change vs veh, GTPBP10 / RFU, CNEP1R1 / Fold change vs veh, CNEP1R1 / RFU, BIVM-ERCC5 /// ERCC5 / Fold change vs veh, BIVM-ERCC5 /// ERCC5 / RFU, ILF3 / Fold change vs veh, ILF3 / RFU 11762660_at / Fold change /veh 11762660_at / RFU VCAN (11757783_s_at) / Fold change /veh VCAN (11757783_s_at) / RFU DDX43 (11728927_at) / Fold change /veh DDX43 (11728927_at) / RFU KRT8 (11758188_x_at) / Fold change /veh KRT8 (11758188_x_at) / RFU NKD1 (11759106_at) / Fold change /veh NKD1 (11759106_at) / RFU SRD5A1 (11742802_a_at) / Fold change /veh SRD5A1 (11742802_a_at) / RFU TPSAB1 /// TPSB2 (11721975_s_at) / Fold change /veh TPSAB1 /// TPSB2 (11721975_s_at) / RFU GSTM3 (11746129_a_at) / Fold change /veh GSTM3 (11746129_a_at) / RFU IL23R (11737362_x_at) / Fold change /veh IL23R (11737362_x_at) / RFU TMEM51 (11727254_a_at) / Fold change /veh TMEM51 (11727254_a_at) / RFU PIWIL2 (11732686_x_at) / Fold change /veh PIWIL2 (11732686_x_at) / RFU ORM1 (11744905_x_at) / Fold change /veh ORM1 (11744905_x_at) / RFU CCDC152 (11743942_at) / Fold change /veh CCDC152 (11743942_at) / RFU ECM1 (11717891_a_at) / Fold change /veh ECM1 (11717891_a_at) / RFU IL23R (11748794_a_at) / Fold change /veh IL23R (11748794_a_at) / RFU TNFAIP8L3 (11732012_x_at) / Fold change /veh TNFAIP8L3 (11732012_x_at) / RFU MBOAT4 (11741988_at) / Fold change /veh MBOAT4 (11741988_at) / RFU 11764193_at / Fold change /veh 11764193_at / RFU TMEM53 (11763286_at) / Fold change /veh TMEM53 (11763286_at) / RFU MAGEB2 (11727129_at) / Fold change /veh MAGEB2 (11727129_at) / RFU TMEM200A (11744735_a_at) / Fold change /veh TMEM200A (11744735_a_at) / RFU CCDC152 (11751479_a_at) / Fold change /veh CCDC152 (11751479_a_at) / RFU FAM211A (11726209_a_at) / Fold change /veh FAM211A (11726209_a_at) / RFU RGS16 (11746705_a_at) / Fold change /veh RGS16 (11746705_a_at) / RFU VCAN (11755009_s_at) / Fold change /veh VCAN (11755009_s_at) / RFU RHOB (11743442_s_at) / Fold change /veh RHOB (11743442_s_at) / RFU RGS16 (11720943_a_at) / Fold change /veh RGS16 (11720943_a_at) / RFU RGS16 (11720944_at) / Fold change /veh RGS16 (11720944_at) / RFU, VPS4B / Fold change vs veh, VPS4B / RFU, CREB1 / Fold change vs veh, CREB1 / RFU, DNAJC13 / Fold change vs veh, DNAJC13 / RFU, GNAQ / Fold change vs veh, GNAQ / RFU, CDK5R1 / Fold change vs veh, CDK5R1 / RFU, ZRANB3 / Fold change vs veh, ZRANB3 / RFU, CUL4A / Fold change vs veh, CUL4A / RFU, CCNY / Fold change vs veh, CCNY / RFU, UFL1 / Fold change vs veh, UFL1 / RFU, COG3 / Fold change vs veh, COG3 / RFU, DIAPH2 / Fold change vs veh, DIAPH2 / RFU, SKA2 / Fold change vs veh, SKA2 / RFU, AFF3 / Fold change vs veh, AFF3 / RFU, LMF1 / Fold change vs veh, LMF1 / RFU, IPO11 / Fold change vs veh, IPO11 / RFU, DFFB / Fold change vs veh, DFFB / RFU, FOXP1 / Fold change vs veh, FOXP1 / RFU, CARD8 / Fold change vs veh, CARD8 / RFU, STRN3 / Fold change vs veh, STRN3 / RFU, ADK / Fold change vs veh, ADK / RFU, RASSF2 / Fold change vs veh, RASSF2 / RFU, WIPF1 / Fold change vs veh, WIPF1 / RFU, LARP1B / Fold change vs veh, LARP1B / RFU, RASA1 / Fold change vs veh, RASA1 / RFU, RB1 / Fold change vs veh, RB1 / RFU, PPFIA1 / Fold change vs veh, PPFIA1 / RFU, MAT2A / Fold change vs veh, MAT2A / RFU, CCT5 / Fold change vs veh, CCT5 / RFU, WDR92 / Fold change vs veh, WDR92 / RFU, CUX1 / Fold change vs veh, CUX1 / RFU, TTC7A / Fold change vs veh, TTC7A / RFU, TMEM135 / Fold change vs veh, TMEM135 / RFU, DEPTOR / Fold change vs veh, DEPTOR / RFU, CPM / Fold change vs veh, CPM / RFU, DNAJB6 / Fold change vs veh, DNAJB6 / RFU, CACNA2D3 / Fold change vs veh, CACNA2D3 / RFU, DTX4 / Fold change vs veh, DTX4 / RFU, TFCP2 / Fold change vs veh, TFCP2 / RFU, GMCL1 /// GMCL1P1 / Fold change vs veh, GMCL1 /// GMCL1P1 / RFU, AEBP2 / Fold change vs veh, AEBP2 / RFU, SNHG1 /// SNORD22 /// SNORD25 /// SNORD26 /// SNORD27 /// SNORD28 /// SNORD29 /// SNORD31 / Fold change vs veh, SNHG1 /// SNORD22 /// SNORD25 /// SNORD26 /// SNORD27 /// SNORD28 /// SNORD29 /// SNORD31 / Fold change (Aza/veh), C12orf56 (ProbeSet 11735607_a_at) / Fold change (ACY-1035/veh), C12orf56 (ProbeSet 11735607_a_at) / Fold change (Aza/veh), FGFR1OP (ProbeSet 11751329_s_at) / Fold change (ACY-1035/veh), FGFR1OP (ProbeSet 11751329_s_at) / Fold change (Aza/veh), VPS36 (ProbeSet 11739960_a_at) / Fold change (ACY-1035/veh), VPS36 (ProbeSet 11739960_a_at) / RFU SYPL1 (11715823_x_at) / Fold change /veh SYPL1 (11715823_x_at) / RFU IGFBP7 (11715501_s_at) / Fold change /veh IGFBP7 (11715501_s_at) / RFU REEP3 (11722064_at) / Fold change /veh REEP3 (11722064_at) / RFU IGLL1 (11728026_x_at) / Fold change /veh IGLL1 (11728026_x_at): dose or concentration left out as unconfirmed
Settings: MV-4-11 cells, 48 hours

SMILES: Nc1ccc(-c2cccs2)cc1NC(=O)c1ccc2c(c1)cc(C1CC1)n2CCN1CCOCC1 [ACY-1035]
- RFU RASL12 (11751679_a_at): 18.80 RFU
